From US20250027086A1, “COMPOSITIONS AND METHODS FOR TREATMENT OF CANCERS USING MODIFIED siRNA-GEM AGENTS” (Sirnaomics, Inc., priority 2022, published 2025)
“Also recorded” adds a separate entry of the source. Like-named read-outs stand apart in the source and are kept apart here.

Tests used:
MDA-MB231 cells = assay: Cell viability in triple negative breast cancer cell line MDA-MB231; assay type: cell-based; conditions: MDA-MB231, 400 cells per well; FIG. 13(a)
Procedure: (§1) MIA PaCa-2, […], LS180, HT1376, HT29, H358, H1299, OVCAR-3, HTB-9 and Panc 10.05 cells were obtained from ATCC (Rockville, MD). MiaPaCa cells were cultured in DMEM medium supplemented with 10% FBS. H358, H1299, HTB-9, N87 and Panc 10.05 cells were cultured in DMEM/10% FBS; LS180 and HT1376 in EMEM/10% FBS; HT29 cells in McCoy5A/10% FBS; OVCAR-3 cells were incubated in RPMI/20% FBS. All cells were maintained at 37 degrees C. in an atmosphere containing 5% CO^2.
(§2) The day before transfection, cells were seeded in a 384-well plate at an optimal density of between 300 and 800 cells/well. […]
(§3) Ninety-six hours following the addition of GEM or transfection mixtures, the number of viable cells was determined with CellTiter-Glo®-2.0 reagent (Promega, Madison, WI) by measuring luminescent signal using a Cytation 5 plate reader (BioTek Inc, Winooski, VT). […]
(§4) Using the same or similar experimental condition as are described above in Example 1, the effects of (i) PGN7 (SEQ. ID No. 9-10) plus a non-signaling oligonucleotide (“NS”), (ii) BCLxL #5 (SEQ. ID No. 14)+NS, and (iii) PGN7 and BCLxL #5 in combination were evaluated and are shown in triple negative breast cancer (MDA-MB231) and ovarian cancer (OVCAR3) cell lines in FIGS. 13 (a)-(b). […]

OVCAR3 cells = assay: Cell viability in ovarian cancer cell line OVCAR3; assay type: cell-based; conditions: OVCAR3, 800 cells per well; FIG. 13(b)
Procedure: as §1, §2, §3, §4

[1] = tested on: pancreatic, lung and colon cancer cell lines; assay: Cell viability in pancreatic, lung and colon cancer cell lines; assay type: cell-based
Procedure: as §1
(§5) The day before transfection, cells were seeded in a 384-well plate at an optimal density of between 300 and 800 cells/well. The next day, ten 3-fold serial dilutions of single, modified-backbone siRNAs or PGN6/PGN7 siRNA and Gemcitabine (GEM) mixed with siRNAs: Wee1 #7, KRAS #1, MCL1 #3 or DM2-P47 siRNAs at 1:1 ratio were prepared and combined with diluted Lipofectamine RNAiMAX (Life Technologies, Carlsbad, CA). Within 20 minutes, 10 μl of the transfection mixtures were added to the cells in a 40 μL medium. The final concentrations of siRNAs or Gemcitabine in the wells ranged from 100 nM to 0.002 nM.
(§6) Ninety-six hours following the addition of GEM or transfection mixtures, the number of viable cells was determined with CellTiter-Glo®-2.0 reagent (Promega, Madison, WI) by measuring luminescent signal using a Cytation 5 plate reader (BioTek Inc, Winooski, VT). The treatment group (n=4) mean (±SD) was compared to those of non-treated controls and were reported as relative cell viability.
Using the same experimental conditions as are described above in Example 1, the efficacy on cell viability was evaluated for PGN6 (SEQ. ID Nos. 7-8), with and without lipofentamine (“lipo”) in three types of cancer cell lines. FIG. 3 (a)-(c) show the effects of PGN6, with and without lipo on cell viability at increasing siRNA levels in pancreatic cancer cell lines. FIG. 4 (a)-(b) similarly show the effects of these variants on cell viability in lung cancer cell lines; FIG. 5 (a)-(b) show the effects of these variants on cell viability in colon cancer cell lines. All data are shown as mean±SD. […]
Using the same experimental conditions as are described above in Example 1, the efficacy of STD1 (SEQ. ID Nos. 1-2), PGN6 (SEQ. ID Nos. 7-8) and PGN7 (SEQ. ID Nos. 9-10) were evaluated in three types of cancer cell lines. […]
Using the same experimental conditions as are described above in Example 1, the efficacy of PGN7 (SEQ. ID No. 9-10) alone and its combination with WEE1 #7 (SEQ. ID No. 13) was evaluated in three types of cancer cell lines. […]
Using the same experimental conditions as are described above in Example 1, the efficacy of PGN7 (SEQ. ID No. 9-10) and the combination of BCLxL #5 (SEQ. ID No. 14) and PGN7 was evaluated in three types of cancer cell lines. […]

[2] = tested on: MIA PaCa-2 human pancreatic cancer xenograft; assay: PGN6 efficacy on pancreatic tumor growth in NOD/SCID mice inoculated with MIA PaCa-2; assay type: in vivo, mouse
Source text: Twenty, 6- to 9-week old NOD/SCID female mice were purchased from the Jackson Laboratory. Each mouse was tagged for identification at the beginning of the study. Up to 5 mice were housed in a single cage with standard corn cob bedding for a minimum of three days for stabilization; bedding was changed every two weeks. Fluorescent lighting was provided on a 12-hour cycle; temperature was maintained between 68-79 degrees F. at 30-70 percent humidity. Mice were fed an 18 percent soy irradiated rodent feed (Envigo) and autoclaved acidified water (pH 2.5-3) were available to all animals ad libitum. The mice were observed daily for clinical signs of disease.
Tumor cell preparation: Cryogenic vials containing tumor cells were thawed and cultured according to the manufacturer's protocol. On the day of inoculation, cells were washed in a serum-free media, counted, and resuspended in cold serum-free media at a concentration of 3 million cells per 100 microliters. […]
Tumor measurement: Mice were monitored weekly for palpable tumors or changes in appearance or behavior. Once tumors were palpable they were measured weekly using calipers. Tumor volume was calculated using the equation: […]
Once tumors were on average between 150-250 mm^3 in volume, tumors and body weights were measured at least twice weekly for the duration of the study. […]

MiaPaCa-2 cells = assay: Cell viability (CellTiter-Glo) in MiaPaCa-2 pancreatic cancer cells after transfection; assay type: cell-based, human; conditions: Homo sapiens, MIA PaCa-2
Procedure: as §1, §5, §6

[3] = tested on: HT1376, HTB-9, N87 and OVCAR-3 cell lines; assay: Cell viability in urinary bladder, gastric and ovarian cancer cell lines; assay type: cell-based; conditions: HT1376, HTB-9, N87, OVCAR-3; FIGS. 9-10
Procedure: as §1, §2, §3
Using the same or similar experimental condition as are described above in Example 1, the effects of PGN7 (SEQ. ID No. 9-10), Wee1 (SEQ. ID No. 13), BCLxL #5 (SEQ. ID No. 14) or the PGN7+Wee1, or PGN+BCLxL combinations were evaluated and are shown in HT1376 (400 cells/well) and HTB-9 (800 cells/well) urinary bladder cancer cell lines, N87 (600 cells/well) gastric cancer cell line, and OVCAR-3 (800 cells/well) ovarian cancer line in FIGS. 11 (a)-(d). […]

For “BCLxL #5: siRNA sequence used to target BCLxL, SEQ. ID No. 14 (no GEM) (GCGTGGAAAGCGTAGACAAGGAGAT; listed as DNA, chemistry not given here)”, the IC50 (MDA-MB231 cells) was 0.5 nM and the IC50 (OVCAR3 cells) was 2.7 nM.

With “PGN6: modified siRNA-GEM molecule (SEQ. ID No. 7-8): sense 5′-AAGAAAgAgau [GEM]UGUAU[GEM]AAU-3′; antisense 5′-AuUGAuACAGAUCuCuuucuu[GEM][GEM]dTdT-3′ (sense AAGAAAGAGATCTGTATCAAT; antisense ATTGATACAGATCTCTTTCTTCCTT; GEM modifications; dTdT overhang; modified_base 1 OTHER; 2'-O-methyl modified nucleotide; modified_base 2 OTHER; modified_base 3 OTHER; modified_base 4 OTHER; modified_base 5 OTHER; modified_base 6 OTHER; modified_base 7 OTHER; 2'-fluoro modified nucleotide; modified_b; 2'-O-me)” the “effectiveness with lipofectamine versus without lipofectamine” value ([1]; lung (FIG. 4) and colon (FIG. 5) cancer cell lines) was “apparently more effective”, the “effectiveness with lipofectamine versus without lipofectamine” value ([1]; pancreatic lines MiaPaCa (G12C), BXPC3 (WT), Panc10.05, FIG. 3) was “more effective” and the “reduction of cell viability” value ([1]; single siRNA against non-silencing control, pancreatic, lung, colon, FIG. 6) was “effective in reducing cell viability”. The “pancreatic tumor volume / tumor growth” value ([2]; 2 mg/kg IV twice weekly for three weeks, with DODAB siRNA in HKP(+H), vs control, n=10, FIG. 12(a)) was “attenuate or prevent tumor growth; also recorded: tumors did not grow; also recorded: attenuating the growth of pancreatic tumors” and the body weight ([2]; 2 mg/kg twice weekly, 20 days treatment period, FIG. 12(b)) was “body weight remained constant”.

Compound `Nc1ccn([C@@H]2O[C@H](CO)[C@@H](O)C2(F)F)c(=O)n1` [Gemcitabine, 2′, 2′-difluoro 2′-deoxycytidine] has an IC50 (MiaPaCa-2 cells; in combination with lipofectamine, 96 h, n=4 (FIG. 2), read-out: IC50, MiaPaCa-2 cell viability) of 8 nM and an IC50 (MiaPaCa-2 cells; with lipofectamine (GEM alone for gemcitabine), FIG. 2, read-out: ID50, MiaPaCa cells) of 8 nM.

In the case of “WEE1 #7: siRNA sequence used to target WEE1, SEQ. ID No. 13 (no GEM) (CGCTCTGTCAGCCTTACTA; listed as DNA, chemistry not given here)”, the “efficacy on cell viability” value [3] is reported as “significant efficacy”.
